From US10905656B2, “Methods and compositions for treating arteriosclerotic vascular diseases” (GOLDEN BIOTECHNOLOGY CORPORATION, priority 2012, dated 2021)

Columns and labels:
[1] = system: ERK1/2; test: ERK1/2 phosphorylation in HepG2 by immunoblot; type: cell-based, human; settings: HepG2, 1 h, immunoblot p-ERK1/2
Protocol: FIG. 11A-B show illustrative effective results of the exemplary cyclohexenone Compound 1 stimulates ERK1/2 phosphorylation in HepG2 cell line. (2A), HepG2 cell line was serum-starved overnight and challenged with the indicated concentrations of Compound 1 for 1 h. Whole cell lysates were then immunoblotted with phosphor-ERK1/2 antibody and reprobed with β-actin antibody. Duplicated membrane was probed with ERK1/2 antibody. (2B), the relative expression level of p-ERK1/2 to β-actin was quantified by densitometry. Experiments were conducted in triplicate. Bar represented as mean±SEM.
HepG2 cells were cultured in MEM alpha medium (Invitrogen/Gibco BRL, Grand Island, N.Y., USA). […]
Sixty micrograms of total protein in cell lysate, which was measured using Bradford assay (Sigma-Aldrich, St. Louis, Mo.), was resolved on 12.5% SDS polyacrylamide gels. […] Blots were blocked with 3% BSA and probed with a 1:1,000 dilution of antibodies to phospho-p44/42 (ERK1/2)(Thr202/Tyr204) (Cell Signaling Technology, USA), p44/42MAPK(ERK1/2) (Cell Signaling Technology, USA) or β-actin (Sigma-Aldrich, St. Louis, Mo.), then horse radish-peroxidase (HRP)-conjugated secondary antibody and detected by 3,3′-diaminobenzidine (DAB) substrate kit for peroxidase (Vector Laboratories, Burlingame, Calif.). […]

[2] = system: PDGF-stimulated A7r5 cells; test: Wound scratching test, PDGF-stimulated smooth muscle cell migration; type: cell-based, Rattus norvegicus; settings: 3 μg/ml, 24 hours
Protocol: 1. A7r5 cells (5×10^6 cells/ml) were seeded onto a 6-well cell culture plate and incubated at 37° C. overnight.
2. 1×PBS was used to wash the wells twice. Compound 1 with different concentrations in DMEM culture medium containing 1% FBS was added and pretreated for 20 hours.
3. A cross-shape acellular space was created by a sterile 200 μl pipette tip and washed twice with 1×PBS.
4. After removing PBS, 2 ml PDGF in DMEM culture medium containing 1% FBS were added. The cells were photographed by a microscope at 0, 6, 12 and 24 hours, respectively from the time of adding PDGF.
The inhibition of Compound 1 on migration of smooth muscle cells (A7r5 cells) was investigated in a wound scratching test by measuring PDGF-stimulated cell migration distance. The PDGF-stimulated cell culture without Compound 1 treatment was used as positive control.

[3] = system: A7r5 cells (rat aortic smooth muscle cells); test: MTT assay, cytotoxic effect on smooth muscle cells; type: cell-based; settings: 0 μg/ml-3 μg/ml, 24 hours
Description: (§1) MTT assay is commonly used to determine cell proliferation, percent of viable cells, and cytotoxicity. MTT (3[4,5-dimethylthiazol-2-yl]2,5-diphenyltetrazolium bromide) is a yellow dye, which can be absorbed by the living cells and be reduced to purplish blue formazan crystals by succinate tetrazolium reductase in mitochondria. Formazan formation can therefore be used to assess and determine the survival rate of cells. A solubilization solution (usually either dimethyl sulfoxide, an acidified ethanol solution, or a solution of the detergent sodium dodecyl sulfate in diluted hydrochloric acid) is added to dissolve the insoluble purple formazan product into a colored solution. The absorbance of this colored solution can be quantified by measuring at a certain wavelength (usually between 500 and 600 nm) by a spectrophotometer. The more surviving cells, the higher the absorbance. The percentage of cell survival (%)=OD value of experimental group÷OD value of control group×100%. Procedure
1. […]
3. […] The survival rate of cells was calculated based on the measurement of absorption at the 570 nm wavelength by ELISA reader.
(§2) Potential cytotoxicity of Compound 1 to smooth muscle cells was tested. […] As shown in FIGS. 2A/2B, the cytotoxic effect of Compound 1 at different concentrations on smooth muscle cells (A7r5) was determined via MTT assay (FIG. 2A) and LDH assay (FIG. 2B).

[4] = system: PDGF-stimulated A7r5 cells; test: PDGF-stimulated smooth muscle cell proliferation, MTT assay; type: cell-based, Rattus norvegicus; settings: 3 μg/ml, 20 hours pretreatment, PDGF 24 hours
Description: as §1
(§3) 1. Adherence of cells: 2×10^4 cells/ml/well of A7r5 cells were seeded onto a 24-well plate and incubated at 37° C. for 24 hours.
2. Dosing: 500 ul/well different concentrations of compound 1 were pretreated in culture medium containing 1% FBS/DMEM for 20 hours. […]
3. […] The survival rate of cells was calculated based on the measurement of absorption at the 570 nm wavelength by ELISA reader. […]

[5] = system: mice with carotid artery ligation; test: Carotid artery ligation model, neointima formation; type: in vivo, C57BL/6J mice; settings: 60 mg/kg body weight oral gavage, from three days before ligation, 28 days; control higher than 3.0; p<0.001
Description: Arteries are vessels that carry blood away from the heart. The carotid arteries are blood vessels that supply blood to the head, neck and brain. One carotid artery is position on each side of the neck. The right common carotid artery branches from the brachiocephalic artery and extends up the right side of the neck. The left common carotid artery branches from the aorta and extends up the left side of the neck. Each carotid artery branches into internal and external vessels near the top of the thyroid. Following the study by Hsing-Chun Chung (Dissertation, 2008, Southern Taiwan University), the carotid artery ligation was conducted on the left common carotid artery in mice to induce neointimal thickening.
This experiment used 8-week-old C57BL/6J male mice having about 25 g of body weight, which were purchased from National Laboratory Animal Center. These mice were maintained at the Laboratory Animal center of National Defense Medical Center on a 12 hour dark/12 hour light cycle in air conditional rooms (18-26° C., 30%-70% humidity).
1. The animals were given Compound 1 by oral gavage three days prior to the surgery and were continuously fed with Compound 1 for 28 days by oral gavage.
2. […]

[6] = system: LDLR mRNA; test: LDLR mRNA expression in HepG2 by RT-PCR; type: cell-based, human; settings: HepG2, after addition of compound
Protocol: FIG. 10A-B show results of LDLR mRNA expression in HepG2 cell line induced by an exemplary cyclohexenone Compound 1. HepG2 cell line was serum-starved overnight and challenged with 20 μM Compound 1 at indicated time intervals (1A). Cells were then collected and the mRNA expression level of LDLR and GAPDH (internal control) were detected by RT-PCR. The relative expression level of LDLR to GAPDH was quantified by densitometry (1B). Experiments were conducted in triplicate. Bar represented as mean±SEM. * indicates p<0.05 and ** indicates p<0.01.
HepG2 cells were cultured in MEM alpha medium (Invitrogen/Gibco BRL, Grand Island, N.Y., USA). Cells were cultured at 37° C. in 5% CO2 in culture media supplemented with 10% fetal bovine serum (Invitrogen/Gibco BRL) and 100 U/ml streptomycin and penicillin (Invitrogen/Gibco BRL). For treatment, cells were seeded in six-well plates at 6.25×10^5 cells/well. On the following day, the media were changed to serum-free and the cells were serum-starved for 24 h. Compound 1 was dissolved in DMSO and diluted to the required concentration with serum-free medium. Cultures were then treated with diluted Compound 1 for the indicated time periods. […]
LDLR mRNA expression level was quantitative analysis by RT-PCR. […] The PCR products intensity was quantified by densitometry using Image-Pro Plus software (Media Cybernetics, Silver Spring, Md.).

[7] = system: A7r5 cells (rat aortic smooth muscle cells); test: Lactate dehydrogenase (LDH) activity assay, cytotoxicity; type: cell-based; settings: 0 μg/ml-3 μg/ml, 24 hours
Description: Cells have plenty of lactate dehydrogenase (LDH). When cells are healthy, LDH cannot freely cross cell membrane. […] LDH activity in the culture medium is directly proportional to the number of dead cells. The cell viability can be measured quantitatively to detect absorbance by using colorimetric method at a wavelength of 492 nm. The change of the absorbance values come from the fact that LDH catalyzes the conversion of lactate to pyruvate with the concomitant production of NADH. The NADH, in the presence of diaphorase and tetrazolium salt INT, is used to drive the diaphorase-catalyzed production of red formazan product. The present experiment utilizes Cytotoxicity Assay Kit (Promega) to conduct culture medium LDH Quantitation assay.
as §3
2. Dosing: 500 ul/well different concentrations of compound 1 were formulated in culture medium containing 10% FBS/DMEM and incubated for 24 hours. […]
3. […] Absorbance was measured by ELISA reader at the 490 nm wavelength.
as §2

Q: With `COC1=C(OC)C(O)C(C/C=C(\C)CC/C=C(\C)CCC=C(C)C)C(C)C1=O` (centres unmarked) [Compound 1, 4-hydroxy-2,3-dimethoxy-6-methyl-5-(3,7,11-trimethyldodeca-2,6,10-trienyl)cyclohex-2-enone] as the compound, how does the “concentration enough to induce activation of ERK1/2” value [1] read?
A: 0.5 µM

Q: What about the “decrease in PDGF-stimulated smooth muscle cell migration” value [2] of the same compound?
A: about 50%

Q: And the “survival rate of cells (MTT assay)” value [3]?
A: cell purification was not affected by the drug treatment

Q: And the “reduction of PDGF-stimulated smooth muscle cell proliferation” value [4]?
A: about 50%

Q: And the “average N/M ratio (neointima area/medial area)” value [5]?
A: 1.0

Q: What about the “time at which LDLR mRNA expression was first increased” value [6] of the same compound?
A: 2 h

Q: What about the “time at which the LDLR mRNA increase reached a significant level” value ([6]; increased up to 6 h) of the same compound?
A: 4 h

Q: And the “cytotoxicity (LDH assay)” value [7]?
A: no cytotoxcity has been observed
